# According to patent US8901313B2, “6,5-heterocyclic propargylic alcohol compounds and uses therefor” (Genentech, Inc., priority 2011, dated 2014):
# Target: T1, nuclear factor-kappa B (NF-kB)-inducing kinase (NIK) (Homo sapiens, UniProt Q99558)
# T1 construct: made in house; host or cells: baculovirus-infected insect cells
# Experiment: NIK Enzyme Inhibition Assay (Transcreener ADP assay)
# Format: biochemical
# Conditions: purified NIK 0.2-1 nM, 10 uM ATP, fluorescence polarization, Morrison's quadratic equation; read-out: inhibitory value (Ki) for NIK
# T1 sequence (Q99558 whole entry): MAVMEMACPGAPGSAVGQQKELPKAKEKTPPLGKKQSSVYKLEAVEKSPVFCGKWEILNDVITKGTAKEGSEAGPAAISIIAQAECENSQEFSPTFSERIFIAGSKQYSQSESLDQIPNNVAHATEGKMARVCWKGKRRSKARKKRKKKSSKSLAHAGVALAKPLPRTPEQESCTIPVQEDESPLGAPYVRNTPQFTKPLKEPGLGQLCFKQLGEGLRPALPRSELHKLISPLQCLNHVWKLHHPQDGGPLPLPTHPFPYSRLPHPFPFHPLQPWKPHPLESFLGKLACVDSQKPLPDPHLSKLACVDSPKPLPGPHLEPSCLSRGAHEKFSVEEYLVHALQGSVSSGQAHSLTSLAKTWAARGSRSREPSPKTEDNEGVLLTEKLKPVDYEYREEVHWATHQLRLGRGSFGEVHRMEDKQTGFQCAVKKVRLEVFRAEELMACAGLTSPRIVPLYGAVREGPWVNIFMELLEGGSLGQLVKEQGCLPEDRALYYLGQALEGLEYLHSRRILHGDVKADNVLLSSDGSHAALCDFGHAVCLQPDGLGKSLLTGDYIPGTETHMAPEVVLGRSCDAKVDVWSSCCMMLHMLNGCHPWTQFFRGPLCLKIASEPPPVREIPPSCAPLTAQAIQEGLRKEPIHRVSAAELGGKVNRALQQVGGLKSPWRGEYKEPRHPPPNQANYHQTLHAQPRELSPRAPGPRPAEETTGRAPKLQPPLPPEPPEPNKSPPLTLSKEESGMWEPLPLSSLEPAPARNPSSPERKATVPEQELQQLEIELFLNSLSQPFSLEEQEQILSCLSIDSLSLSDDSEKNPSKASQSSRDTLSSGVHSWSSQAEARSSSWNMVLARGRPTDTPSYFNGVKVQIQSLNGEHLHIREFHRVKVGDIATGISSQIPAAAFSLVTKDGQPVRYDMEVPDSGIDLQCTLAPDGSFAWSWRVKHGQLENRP
row,SMILES,Ki [nM]
1,"N#Cc1ccc2cnn(-c3nc(N)ncc3[N+](=O)[O-])c2c1 [Example T1-8, 1-(2-amino-5-nitropyrimidin-4-yl)-1H-indazole-6-carbonitrile]",411
2,"C[C@@](O)(C#Cc1ccc2[nH]c(=O)n(-c3ccnc(N)n3)c2c1)c1nccs1 [Example T1-47, (R)-1-(2-aminopyrimidin-4-yl)-6-(3-hydroxy-3-(thiazol-2-yl)but-1-ynyl)-1H-benzo[d] imidazol-2(3H)-one]",0.11
3,"Cc1nn(-c2ccnc(N)n2)c2cc(C#CC3(O)CCN(C)CC3)ccc12 [Example T1-69, 4-((1-(2-aminopyrimidin-4-yl)-3-methyl-1H-indazol-6-yl)ethynyl)-1-methylpiperidin-4-ol]",≥ 5000
4,"Cc1cc([C@](C)(O)C#Cc2ccc3[nH]c(=O)n(-c4ccnc(N)n4)c3c2)no1 [Example T1.1-1, 3-(2-aminopyrimidin-4-yl)-[(3R)-3-hydroxy-3-(5-methyl-isoxazol-3-yl)but-1-ynyl]-1H-benzimidazol-2-one]",0.1
5,"Cc1cc(C(C)(O)C#Cc2ccc3c(C(O)C(C)C)nn(-c4ccnc(N)n4)c3c2)no1 (stereo not shown) [Example T1.1-3, 4-[1-(2-aminopyrimidin-4-yl)-3-(1-hydroxy-2-methyl-pro-pyl)indazol-6-yl]-2-(5-methyl-isoxazol-3-yl)but-3-yn-2-ol]",0.2
6,"Cc1cc([C@](C)(O)C#Cc2ccc3nc(C)n(-c4ncnc(N)n4)c3c2)no1 [Example T1.1-5, (2R)-4-[3-(4-amino-1,3,5-triazin-2-yl)-2-methyl-benzimidazol-5-yl]-2-(5-methylisoxazol-3-yl)but-3-yn-2-ol]",0.32
7,"Cc1cc(C(C)(O)C#Cc2ccc3c(C(C)(O)C4CC4)nn(-c4ccnc(N)n4)c3c2)no1 (stereo not shown) [Example T1.1-6, 4-[1-(2-aminopyrimidin-4-yl)-3-(1-cyclopropyl-1-hydroxy-ethyl)indazol-6-yl]-2-(5-methylisoxazol-3-yl)but-3-yn-2-ol]",0.32
8,"Cc1nc([C@](C)(O)C#Cc2ccc3c(CF)nn(-c4ccnc(N)n4)c3c2)no1 [Example T1.1-8, (2R)-4-[1-(2-aminopyrimidin-4-yl)-3-(fluoromethyl)indazol-6-yl]-2-(5-methyl-1,2,4-oxadiazol-3-yl)but-3-yn-2-ol]",0.5
9,"Cc1cc([C@](C)(O)C#Cc2ccc3c(c2)n(-c2ccnc(N)n2)c(=O)n3C)no1 [Example T1.1-10, 3-(2-aminopyrimidin-4-yl)-5-[(3R)-3-hydroxy-3-(5-methylisoxazol-3-yl)but-1-ynyl]-1-methyl-benzimidazol-2-one]",0.5
10,"Cc1cc(C(C)(O)C#Cc2ccc3nc(OCC(O)CO)n(-c4ccnc(N)n4)c3c2)no1 (stereo not shown) [Example T1.1-13, 3-[1-(2-aminopyrimidin-4-yl)-6-[3-hydroxy-3-(5-methylisoxazol-3-yl)but-1-ynyl]benzimidazol-2-yl]oxypropane-1,2-diol]",0.6
11,"Cc1cc([C@](C)(O)C#Cc2ccc3c(C(=O)N4CCOCC4)nn(-c4ccnc(N)n4)c3c2)no1 [Example T1.1-14, [1-(2-aminopyrimidin-4-yl)-6-[(3R)-3-hydroxy-3-(5-methylisoxazol-3-yl)but-1-ynyl]indazol-3-yl]-morpholino-methanone]",0.8
12,"Cc1nn(-c2ccnc(N)n2)c2cc(C#CC3(O)CCN(C)C3=O)ccc12 (stereo not shown) [Example T1.1-16, 3-[2-[1-(2-aminopyrimidin-4-yl)-3-methyl-indazol-6-yl]ethynyl]-3-hydroxy-1-methyl-pyrrolidin-2-one]",1
13,"CCOc1nc2ccc(C#CC(C)(O)c3cc(CO)on3)cc2n1-c1ccnc(N)n1 (stereo not shown) [Example T1.1-17, 4-[3-(2-aminopyrimidin-4-yl)-2-ethoxy-benzimidazol-5-yl]-2-[5-(hydroxymethyl)isoxdazol-3-yl]but-3-yn-2-ol]",1
14,"Cc1cc([C@](C)(O)C#Cc2ccc3c(C(N)=O)nn(-c4ccnc(N)n4)c3c2)no1 [Example T1.1-20, 1-(2-aminopyrimidin-4-yl)-6-[(3R)-3-hydroxy-3-(5-methyl-isoxazol-3-yl)but-1-ynyl] indazole-3-carboxamide]",1
15,"CC(O)(C#Cc1ccc2[nH]c(=O)n(-c3ccnc(N)n3)c2c1)c1cc(CO)on1 (stereo not shown) [Example T1.1-21, 3-(2-aminopyrimidin-4-yl)-5-[3-hydroxy-3-[5-(hydroxymethyl)isoxazol-3-yl]but-1-ynyl]-1H-benzimidazol-2-one]",1
16,"Cn1c(=O)n(-c2ccnc(N)n2)c2cc(C#CC3(O)CCn4ccnc43)ccc21 (stereo not shown) [Example T1.1-22, 3-(2-aminopyrimidin-4-yl)-5-[2-(7-hydroxy-5,6-dihydropyrrolo[1,2-a]imidazol-7-yl)ethynyl]-1-methyl-benzimidazol-2-one]",1
17,"Cc1nc([C@](C)(O)C#Cc2ccc3c(C(=O)N4CC(O)C4)nn(-c4nc(N)ncc4Cl)c3c2)no1 [Example T1.1-23, [1-(2-amino-5-chloro-pyrimidin-4-yl)-6-[(3R)-3-hydroxy-3-(5-methyl-1,2,4-oxadiazol-3-yl)but-1-ynyl]indazol-3-yl]-(3-hydroxy-azetidin-1-yl)methanone]",1
18,"Cc1nc([C@](C)(O)C#Cc2ccc3c(C(=O)N4CCC(F)CC4)nn(-c4ccnc(N)n4)c3c2)no1 [Example T1.1-24, [1-(2-aminopyrimidin-4-yl)-6-[(3R)-3-hydroxy-3-(5-methyl-1,2,4-oxadiazol-3-yl)but-1-ynyl]indazol-3-yl]-(4-fluoro-1-piperidyl)methanone]",1
19,"Cc1cc([C@](C)(O)C#Cc2ccc3nc(OC4COC4)n(-c4ccnc(N)n4)c3c2)no1 [Example T1.1-25, (2R)-4-[3-(2-aminopyrimidin-4-yl)-2-(oxetan-3-yloxy)benzimidazol-5-yl]-2-(5-methylisoxazol-3-yl) but-3-yn-2-ol]",1

# More lines, now with the values ahead:
row,Ki [nM],SMILES
1,2900,"CC(C)(O)C#Cc1ccc2nc(C3CC3)n(-c3ccnc(N)n3)c2c1 [Example T1-17, 4-(1-(2-aminopyrimidin-4-yl)-2-cyclopropyl-1H-benzo[d]imidazol-6-yl)-2-methylbut-3-yn-2-ol]"
2,2100,"COc1ncccc1Nc1ncnc(-n2ncc3ccc(C#CC(C)(C)O)cc32)n1 [Example T1-24, 4-(1-(4-(2-methoxypyridin-3-ylamino)-1,3,5-triazin-2-yl)-1H-indazol-6-yl)-2-methylbut-3-yn-2-ol]"
3,60,"CN(C)C(=O)c1nn(-c2ccnc(N)n2)c2cc(C#CC(C)(C)O)ccc12 [Example T1-30, 1-(2-aminopyrimidin-4-yl)-6-(3-hydroxy-3-methylbut-1-ynyl)-N,N-dimethyl-1H-indazole-3-carboxamide]"
4,4600,"COc1ncccc1Nc1cc(-n2ncc3ccc(C#CC(C)(C)O)cc32)ncn1 [Example T1-31, 4-(1-(6-(2-methoxypyridin-3-ylamino)pyrimidin-4-yl)-1H-indazol-6-yl)-2-methylbut-3-yn-2-ol]"
5,0.16,"CN(C)C(=O)c1nn(-c2ccnc(N)n2)c2cc(C#C[C@@](C)(O)c3nccs3)ccc12 [Example T1-46, (R)-1-(2-aminopyrimidin-4-yl)-6-(3-hydroxy-3-(thiazol-2-yl)but-1-ynyl)-N,N-dimethyl-1H-indazole-3-carboxamide]"
6,847,"Cc1nn(-c2ccnc(N)n2)c2cc(C#C[C@](C)(O)c3nccs3)ccc12 [Example T1-49, (S)-4-(1-(2-aminopyrimidin-4-yl)-3-methyl-1H-indazol-6-yl)-2-(thiazol-2-yl)but-3-yn-2-ol]"
7,575,"Cc1csc(C(C)(O)C#Cc2ccc3c(C)nn(-c4ccnc(N)n4)c3c2)n1 (stereo not shown) [Example T1-51, 4-(1-(2-aminopyrimidin-4-yl)-3-methyl-1H-indazol-6-yl)-2-(4-methylthiazol-2-yl)but-3-yn-2-ol]"
8,0.5,"CCOc1nc2ccc(C#CC(C)(O)c3cc(C)on3)cc2n1-c1ccnc(N)n1 (stereo not shown) [Example T1-70, 4-(1-(2-aminopyrimidin-4-yl)-2-ethoxy-1H-benzo[d]imidazol-6-yl)-2-(5-methyl-isoxazol-3-yl)but-3-yn-2-ol]"
9,0.2,"Cc1nc2ccc(C#C[C@@](C)(O)c3nccs3)cc2n1-c1ncnc(N)n1 [Example T1.1-2, (2R)-4-[3-(4-amino-1,3,5-triazin-2-yl)-2-methyl-benzimidazol-5-yl]-2-thiazol-2-yl-but-3-yn-2-ol]"
10,0.22,"Cc1cc([C@](C)(O)C#Cc2ccc3c(CO)nn(-c4ccnc(N)n4)c3c2)no1 [Example T1.1-4, (2R)-4-[1-(2-aminopyrimidin-4-yl)-3-(hydroxymethyl)indazol-6-yl]-2-(5-methyl-isoxazol-3-yl)but-3-yn-2-ol]"
11,0.4,"Cc1nc([C@](C)(O)C#Cc2ccc3c(C(C)(C)O)nn(-c4ccnc(N)n4)c3c2)no1 [Example T1.1-7, (2R)-4-[1-(2-aminopyrimidin-4-yl)-3-(1-hydroxy-1-methyl-ethyl)indazol-6-yl]-2-(5-methyl-1,2,4-oxadiazol-3-yl) but-3-yn-2-ol]"
12,0.5,"Cc1cc([C@](C)(O)C#Cc2ccc3c(C(C)(C)O)nn(-c4ccnc(N)n4)c3c2)no1 [Example T1.1-9, (2R)-4-[1-(2-aminopyrimidin-4-yl)-3-(1-hydroxy-1-methyl-ethyl)indazol-6-yl]-2-(5-methyl-isoxazol-3-yl)but-3-yn-2-ol]"
13,0.6,"Cc1nn(-c2ccnc(N)n2)c2cc(C#CC(C)(O)c3c[nH]cn3)ccc12 (stereo not shown) [Example T1.1-12, 4-[1-(2-aminopyrimidin-4-yl)-3-methyl-indazol-6-yl]-2-(1H-imidazol-4-yl)but-3-yn-2-ol]"
14,1,"CNC(=O)c1nn(-c2ccnc(N)n2)c2cc(C#C[C@@](C)(O)c3cc(C)on3)ccc12 [Example T1.1-15, 1-(2-aminopyrimidin-4-yl)-6-[(3R)-3-hydroxy-3-(5-methylisoxazol-3-yl)but-1-ynyl]-N-methyl-indazole-3-carboxamide]"
15,1,"Cc1nn(-c2ccnc(N)n2)c2cc(C#CC(C)(O)c3cc(CF)on3)ccc12 (stereo not shown) [Example T1.1-19, 4-[1-(2-aminopyrimidin-4-yl)-3-methyl-indazol-6-yl]-2-[5-(fluoromethyl)isoxazol-3-yl]but-3-yn-2-ol]"
